System: E. coli
Assay: Disinfection of E. coli-infected surfaces, SYTO9/PI confocal fluorescence microscopy
Format: cell-based
Conditions: on stainless steel, plastic and spinach leaf, 20 min treatment
Procedure: The efficacy of AquaROS as a disinfectant for reducing pathogen concentration was tested with three different surfaces infected with E. coli: stainless steel, plastic, and spinach leaf (cut from a single leaf as 1-cm×1-cm squares and washed 3× with distilled water and dried ambiently prior to E. coli deposition). For these experiments, E. coli was cultured in LB broth at 37° C. for approximately 16 hours. Using sterilized LB broth, the E. coli suspension was diluted to a concentration of 4.5×10^8 cells/mL, using a UV-vis spectrophotometer to monitor absorption at 600 nm. Infection of each surface was achieved by deposition of 10 μL of 4.5×10^8 cell/mL E. coli suspension followed by drying in a desiccator for approximately 10 min. AquaROS was applied by spraying pure water at 120 psi and at a height of 1.5 cm from the E. coli surface with a 10 μl/min flow rate for 20 min (FIG. 6). Control samples were treated by depositing 100 μL of 3% H2O2 and allowing it to react for 20 min at room temperature. Following treatment with AquaROS spray and 3% H2O2, 1 mL PBS 1× (pH 7.4) was added to the glass vial containing the treated material, swirled, then pipetted into a 1-mL Eppendorf tube. […]
FIG. 7 is a plot of E. coli death by AquaROS spray on the different surfaces compared to 3% H2O2. Cell death data were acquired by confocal fluorescence microscopy of each sample placed on a glass slide. […]

`OO` [3% H2O2, hydrogen peroxide] was tested, and the E. coli death was “approximately 60%”.
